Patent EP0329348B1, “2',3'-Dideoxy-2',2'-difluoronucleosides” (ELI LILLY AND COMPANY, priority 1988, dated 1989)
Values after ≈ are worked out from the molar mass of the structure shown.

Tests used:
Format in all cases: cell-based
[1] = test system: human leukemic cells (CCRF-CEM cell line); assay: Cytotoxicity screen: growth inhibition of human leukemic cells; conditions: read-out: IC₅₀ (concentration giving 50% growth inhibition)
From the text: See, e.g., Miller et al., in J. Med. Chem. Vol. 20, No. 3 409 (1977) and Sweeney, et al., in Cancer Research 38, 2886 (1978).
The compounds of the present invention represented by Formula I are cytostatic in that they inhibit the growth of human leukemic cells (CCRF-CEM cell line). Table 1 below gives the results of such testing of compounds representative of those in Formula I. In the Table, column 1 gives the example number of the compound and column 2 the IC₅₀ (concentration giving 50% growth inhibition) in mcg/ml.

HSV-1 = assay: Plaque-reduction study against HSV-1; conditions: HSV-1 plaque reduction
Protocol: (§1) The following plaque-reduction study provides a quantitative evaluation of inhibitors of virus multiplication and establishes the antiviral activity of a representative compound of the present invention. According to this study, susceptible cells (BSC-1, Hela, MDCK, etc.) were grown in 25 cm² Falcon flasks at 37°C in Medium 199 with 5 percent inactivated fetal bovine serum (FBS), penicillin (150 units/ml) and streptomycin (150 »g/ml). When confluent monolayers were formed, the growth medium was removed and 0.3 ml of an appropriate dilution of the virus was added to each flask. After adsorption for one hour at room temperature, the infected cell sheet was overlaid with equal parts of 1 percent Agarose and 2x Medium 199, 2.5 percent FBS, penicillin, and streptomycin. The compound to be tested was dissolved in dimethyl sulfoxide (DMSO) at a concentration of 10,000 »g/ml and an aliquot of the resulting solution was diluted to the desired concentration with the agar medium mixture. Flasks were incubated at 37°C until control flasks indicated optimum plaque size of about 2 to about 10 mm. A solution containing 10 percent formalin by volume and 2 percent sodium acetate by volume was added to each flask to inactivate the virus and fix the cell sheet to the plastic surface. The plaques were counted after staining the surrounding cell areas with crystal violet. Results from duplicate flasks at each concentration were averaged and compared with control flasks. The following degrees of inhibition against HSV-1 were observed.

HSV-2 = assay: Plaque-reduction study against HSV-2; conditions: HSV-2 plaque reduction
Protocol: as §1, with “Results from duplicate flasks at each concentration were averaged and compared with control flasks. The following degrees of inhibition against HSV-1 were observed.” left out

Friends leukemia virus = assay: CPE inhibition in SC-1 cells infected with murine leukemia virus, XC cell overlay; conditions: SC1, 120 h, SC-1 cells from a feral mouse, XC cells added after 5 days, read-out: IC₅₀
Protocol: The following procedure was used to establish the efficacy of a representative compound of the present invention against Friends leukemia virus. SC-1 cells from a feral mouse were seeded subconfluently at 2-5 x 10³ cells per well in 96 microwell plates with complete MEM media plus 2 mcg/ml polybrene overnight at 37°C under a carbon dioxide atmosphere. The medium was removed. The cultures were infected with a proper dilution of murine leukemia virus (50 mcl/well) and were allowed to adsorb for about two hours at room temperature. After adsorption, the virus containing medium was removed and replaced with fresh complete MEM, both with and without dilutions of the compound of Example 1, and reincubated at 37°C under carbon dioxide for 5 days or until the cells reached confluence. The medium was removed and the cells were exposed for 10 seconds to a UV germicidal light. XC cells from a Rous sarcoma virus induced rat tumor cell line at a concentration of 5-8 x 10⁴ cells/well were added to the irradiated SC-1 monolayers. The cultures were incubated at 37°C under carbon dioxide for three days until CPE occurred in the control wells. Cultures were fixed with formalin and stained with crystal violet. The results were scored as CPE inhibition.

Row | Structure (SMILES) | IC50 [1] | Inhibition (HSV-1; concentration 25 (unit ug/ml)) | other results
1 | Nc1nc(N)c2ncn([C@@H]3O[C@H](CO)CC3(F)F)c2n1 [Example 2, β-1-(2,6-diamino-9H-purin-9-yl)-2,3-dideoxy-2,2-difluororibose] | 1.9 µg/mL (≈ 6.64 µM) | – | Inhibition (HSV-1; concentration 3.1 (unit ug/ml)): 27%
2 | Cc1cn([C@@H]2O[C@H](CO)[C@@H](N=[N+]=[N-])C2(F)F)c(=O)[nH]c1=O [Example 4, β-1-(5-methyl-2,4-dioxo-1H,3H-pyrimidin-1-yl)-3-azido-2,3-dideoxy-2,2-difluororibose] | 23.4 µg/mL (≈ 77.2 µM) | 39% | Inhibition (HSV-2; concentration 13.5 (unit ug/ml)): 50%
3 | Nc1nc2c(ncn2[C@@H]2O[C@H](CO)CC2(F)F)c(=O)[nH]1 [Example 3, β-1-(2-amino-6-oxo-9H-purin-9-yl)-2,3-dideoxy-2,2-difluororibose] | 8.5 µg/mL (≈ 29.6 µM) | – | inhibition at 25 µg/mL (HSV-2; Human alphaherpesvirus 2, concentration 25 ug/ml): 21%
4 | Cc1cn([C@@H]2O[C@H](CO)CC2(F)F)c(=O)[nH]c1=O [Example 5, β-1-(5-methyl-2,4-dioxo-1H,3H-pyrimidin-1-yl)-2,3-dideoxy-2,2-difluororibose] | > 20 µg/mL | 35% | –
5 | Nc1ccn([C@@H]2O[C@H](CO)CC2(F)F)c(=O)n1 [Example 1, β-1-(4-Amino-2-oxo-1H-pyrimidin-1-yl)-2,3-dideoxy-2,2-difluororibose] | 1.9 µg/mL (≈ 7.69 µM) | – | inhibition at 15 µg/mL (HSV-1; Human alphaherpesvirus 1, concentration 15 ug/ml): 50%; IC50 (Friends leukemia virus): 6.5 µg/mL (≈ 26.3 µM)
